Test results taken from patent US5891877A, “Pharmaceutical compounds” (Xenova Limited, priority 1996, dated 1999).
pIC50: −log10 of the molar value. Structures can show the parent of a compound that is named as a salt.

Target: PAI-1 (Homo sapiens, UniProt P05121)
Experiment: PAI-1 inhibition in the S2251 chromogenic substrate assay (PAI functional assay)
Format: biochemical
Conditions: Table 1, second part; for inhibition at 20 µM / inhibition at 50 µM / inhibition at 100 µM: read-out: INHIBITION OF PAI-1 (degree of inhibition); for pIC50: PAI-1, S2251 assay; for INHIBITION OF PAI-1 (degree of inhibition): unit assumed
Experimental: In this assay, a compound is incubated with PAI-1 prior to addition to the tPA assay system. Inhibition of PAI-1 results in the production of plasmin from plasminogen. […]
Compounds of formula (A) were tested in a PAI chromogenic substrate assay. […] In turn, the plasmin cleaved the chromogenic substrate S2251 (Kabi-Vitrum) producing pNA (p-nitroaniline) which was detected scectrophotometrically at 405 nm.

Chain of PAI-1 (P05121 24-402): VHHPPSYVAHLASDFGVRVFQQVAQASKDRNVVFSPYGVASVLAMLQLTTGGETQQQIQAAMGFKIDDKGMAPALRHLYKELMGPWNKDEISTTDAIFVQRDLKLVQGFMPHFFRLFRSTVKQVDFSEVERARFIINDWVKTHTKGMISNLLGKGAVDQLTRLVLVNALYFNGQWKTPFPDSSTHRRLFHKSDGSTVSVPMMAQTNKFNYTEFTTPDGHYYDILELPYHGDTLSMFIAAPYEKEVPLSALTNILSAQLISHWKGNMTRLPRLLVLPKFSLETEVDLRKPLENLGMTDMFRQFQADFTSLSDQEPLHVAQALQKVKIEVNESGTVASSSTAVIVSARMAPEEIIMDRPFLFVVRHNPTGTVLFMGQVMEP

SMILES: O=c1[nH]/c(=C\c2ccc(OCCN3CCCC3)cc2)c(=O)[nH]/c1=C\c1ccccc1 [Compound 5053, (3Z,6Z)-6-Benzylidene-3-(4-(2-(1-pyrrolidinyl)ethoxy)benzylidene)2,5-piperazinedione]
- inhibition at 20 µM (20 μM): 56%
- inhibition at 50 µM: 64%
- inhibition at 100 µM (100 μM): 68%

SMILES: O=c1[nH]/c(=C\c2ccc(OCCN3CCOCC3)cc2)c(=O)[nH]/c1=C\c1ccccc1 [Compound 5054, (3Z,6Z)-6-Benzylidene-3-(4-(2-morpholinoethoxy)benzylidene)-2,5-piperazinedione]
- inhibition at 20 µM (20 μM): 48%
- inhibition at 50 µM: 57%
- inhibition at 100 µM (100 μM): 5%

SMILES: O=c1[nH]/c(=C\c2ccc(OCCn3ccnc3)cc2)c(=O)[nH]/c1=C\c1ccccc1 [Compound 5055, (3Z,6Z)-6-Benzylidene-3-(4-(2-(1-imidazolyl)ethoxy)benzylidene)2,5-piperazinedione]
- inhibition at 20 µM (20 μM): 70%
- inhibition at 50 µM: 69%
- inhibition at 100 µM (100 μM): 69%

SMILES: O=c1[nH]/c(=C\c2ccc(OCC(O)Cn3ccnc3)cc2)c(=O)[nH]/c1=C\c1ccccc1 (stereo not shown) [Compound 5057, (3Z,6Z)-6-Benzylidene-3-(4-(2-hydroxy-3-(1-imidazolyl)propoxy)benzylidene)-2,5-piperazinedione]
- inhibition at 20 µM (20 μM): 37%
- inhibition at 50 µM: 29%
- inhibition at 100 µM (100 μM): 44%

SMILES: CN(C)CC(=O)NCc1ccc(/C=c2\[nH]c(=O)/c(=C/c3ccccc3)[nH]c2=O)cc1 [Compound 5061, (3Z,6Z)-6-Benzylidene-3-(4-dimethylaminoacetamidomethylbenzylidene)-2,5-piperazinedione]
- inhibition at 20 µM (20 μM): 60%
- inhibition at 50 µM: 48%
- inhibition at 100 µM (100 μM): 43%

SMILES: CN(C)CCOc1ccc(/C=c2\[nH]c(=O)/c(=C/c3ccoc3)[nH]c2=O)cc1 [Compound 5062, (3Z,6Z)-6-(4-(2-Dimethylaminoethoxy)benzylidene)-3-(3-furylmethylene)-2,5-piperazinedione]
- inhibition at 20 µM (20 μM): 87%
- inhibition at 50 µM: 81%
- inhibition at 100 µM (100 μM): 78%

SMILES: CN(C)CCOCc1ccc(/C=c2\[nH]c(=O)/c(=C/c3ccsc3)[nH]c2=O)cc1 [Compound 5069, (3Z,6Z)-6-(4-(2-Dimethylaminoethoxymethyl)benzylidene)-3-(3-thenylidene)-2,5-piperazinedione]
- inhibition at 20 µM (20 μM): 75%
- inhibition at 50 µM: 71%
- inhibition at 100 µM (100 μM): 70%

SMILES: CN(C)CCOc1ccc(/C=c2\[nH]c(=O)/c(=C/c3ccsc3)[nH]c2=O)cc1 [Compound 5071, (3Z,6Z)-6-(4-(2-Dimethylaminoethoxy)benzylidene)-3-(3-thenylidene)-2,5-piperazinedione]
- inhibition at 20 µM (20 μM): 73%
- inhibition at 50 µM: 82%
- inhibition at 100 µM (100 μM): 80%

SMILES: CSc1ccc(/C=c2\[nH]c(=O)/c(=C/c3ccc(OCCN(C)C)cc3)[nH]c2=O)s1 [Compound 5072, (3Z,6Z)-6-(4-(2-Dimethylaminoethoxy)benzylidene)-3-(5-methylthio-2-thenylidene)-2,5-piperazinedione]
- inhibition at 20 µM (20 μM): 61%
- inhibition at 50 µM: 61%
- inhibition at 100 µM (100 μM): 60%

SMILES: CN(C)CCSCc1ccc(/C=c2\[nH]c(=O)/c(=C/c3ccoc3)[nH]c2=O)cc1 [Compound 5073, (3Z,6Z)-6-(4-(2-Dimethylaminoethylthiomethyl)benzylidene)-3-(3-furylmethylene)-2,5-piperazinedione]
- inhibition at 20 µM (20 μM): 14%
- inhibition at 50 µM: 70%
- inhibition at 100 µM (100 μM): 63%

SMILES: CN(C)CC(=O)NCc1ccc(/C=c2\[nH]c(=O)/c(=C/c3ccsc3)[nH]c2=O)cc1 [Compound 5074, (3Z,6Z)-6-(4-Dimethylaminoacetamidomethylbenzylidene)-3-(3-thenylidene)-2,5-piperazinedione]
- inhibition at 20 µM (20 μM): 26%
- inhibition at 50 µM: 57%
- inhibition at 100 µM (100 μM): 47%

SMILES: O=c1[nH]/c(=C\c2cc(Cl)sc2Cl)c(=O)[nH]/c1=C\c1ccccc1 [Compound 5075, (3Z,6Z)-3-(2,5-Dichloro-3-thenylidene)-6-benzylidene-2,5-piperazinedione]
- inhibition at 20 µM (20 μM): 52%
- inhibition at 50 µM: 88%
- inhibition at 100 µM (100 μM): 88%

SMILES: CN(C)CCOCc1ccc(/C=c2\[nH]c(=O)/c(=C/c3ccoc3)[nH]c2=O)cc1 [Compound 5077, (3Z,6Z)-6-(4-(2-Dimethylaminoethoxymethyl)benzylidene)-3-(3-furylmethylene)-2,5-piperazinedione]
- inhibition at 20 µM (20 μM): 42%
- inhibition at 50 µM: 46%
- inhibition at 100 µM (100 μM): 34%

SMILES: CN(C)CCSCc1ccc(/C=c2\[nH]c(=O)/c(=C/c3ccsc3)[nH]c2=O)cc1 [Compound 5078, (3Z,6Z)-6-(4-(2-Dimethylaminoethylthiomethyl)benzylidene)-3-(3-thenylidene)-2,5-piperazinedione]
- inhibition at 20 µM (20 μM): 11%
- inhibition at 50 µM: 67%
- inhibition at 100 µM (100 μM): 60%

SMILES: CN(C)CC(=O)NCc1ccc(/C=c2\[nH]c(=O)/c(=C/c3ccccc3Br)[nH]c2=O)cc1 [Compound 5079, (3Z,6Z)-3-(2-Bromobenzylidene)-6-(4-dimethylaminoacetamidomethylbenzylidene)-2,5-piperazinedione]
- inhibition at 20 µM (20 μM): 14%
- inhibition at 50 µM: 58%
- inhibition at 100 µM (100 μM): 44%

SMILES: CN(C)CC(=O)NCc1ccc(/C=c2\[nH]c(=O)/c(=C/c3ccoc3)[nH]c2=O)cc1 [Compound 5081, (3Z,6Z)-6-(4-Dimethylaminoacetamidomethylbenzylidene)-3-(3-furylmethylene)-2,5-piperazinedione]
- inhibition at 20 µM (20 μM): 50%
- inhibition at 50 µM: 34%
- inhibition at 100 µM (100 μM): 25%

SMILES: CN(C)CCCOc1ccc(/C=c2\[nH]c(=O)/c(=C/c3ccc4ccccc4c3)[nH]c2=O)cc1 [Compound 5188, (3Z,6Z)-6-(4-(3-Dimethylaminopropoxy)benzylidene)-3-(2-Naphthylmethylene)-2,5-piperazinedione]
- inhibition at 20 µM (20 μM): 94%
- inhibition at 100 µM (100 μM): 90%
- pIC50: 5.46

SMILES: CN(C)CCCOc1ccc(/C=c2\[nH]c(=O)/c(=C/c3cccc4ccccc34)[nH]c2=O)cc1 [Compound 5200, (3Z,6Z)-6-(4-(3-Dimethylaminopropoxy)benzylidene)-3-(1-Naphthylmethylene)-2,5-piperazinedione]
- INHIBITION OF PAI-1 (degree of inhibition) (20 μM): 10%
- INHIBITION OF PAI-1 (degree of inhibition) (100 μM): 10%

SMILES: CN(C)CCCOc1ccc(/C=c2\[nH]c(=O)/c(=C/c3cccc4ccccc34)[nH]c2=O)cc1 [Compound 5205]
- INHIBITION OF PAI-1 (degree of inhibition) (20 μM): 33%
- INHIBITION OF PAI-1 (degree of inhibition) (100 μM): 56%
- pIC50: 4.00

SMILES: CN(C)CCCOc1ccc(/C=c2\[nH]c(=O)/c(=C/c3ccc4ccccc4c3)[nH]c2=O)cc1 [Compound 5206]
- INHIBITION OF PAI-1 (degree of inhibition) (20 μM): 78%
- INHIBITION OF PAI-1 (degree of inhibition) (100 μM): 72%
- pIC50: 5.52

SMILES: CN(C)CCN(C)c1ccc(/C=c2\[nH]c(=O)/c(=C/c3ccccc3)[nH]c2=O)s1 [Compound 5299, (3Z,6Z)-6-Benzylidene-3-(5-(2-dimethylaminoethyl)methylamino-2-thienylmethylene)-2,5-piperazinedione]
- pIC50: 5.15

SMILES: CN(C)CCOc1ccc(/C=c2\[nH]c(=O)/c(=C/c3ccccc3)[nH]c2=O)s1 [Compound 5324, (3Z,6Z)-6-Benzylidene-3-(5-(2-dimethylaminoethoxy)-2-thienylmethylene)-2,5-piperazinedione]
- pIC50: 5.05

SMILES: CN(C)CCOc1csc(/C=c2\[nH]c(=O)/c(=C/c3ccccc3)[nH]c2=O)c1 [Compound 5327, (3Z,6Z)-6-Benzylidene-3-(4-(2-dimethylaminoethoxy)-2-thienylmethylene)-2,5-piperazinedione]
- inhibition at 20 µM (20 μM): 17%

SMILES: CN(C)CCc1ccc(/C=c2\[nH]c(=O)/c(=C/c3ccccc3)[nH]c2=O)s1 [Compound 5335, (3Z,6Z)-6-Benzylidene-3-(5-(2-dimethylaminoethyl)-2-thienylmethylene)-2,5-piperazinedione]
- pIC50: 4.66

SMILES: CN(C)CCCOc1ccc(/C=c2\[nH]c(=O)/c(=C/c3ccc(C(=O)N4CCc5ccccc5C4)cc3)[nH]c2=O)cc1 [Compound 5367]
- pIC50: 4.74

SMILES: O=C(NCCCCN1CCc2ccccc2C1)c1ccc(/C=c2\[nH]c(=O)/c(=C/c3ccccc3)[nH]c2=O)cc1 [Compound 5371, N-(4-(1,2,3,4-Tetrahydro-2-isoquinolyl)butyl)-4-((3Z,6Z)-6-benzylidene-2,5-dioxo-3-piperazinylidene)methylbenzamide]
- pIC50: 4.92

SMILES: CN(C)CCCOc1ccc(/C=c2\[nH]c(=O)/c(=C/c3ccc(C(=O)N4CCc5ccccc5C4)cc3)[nH]c2=O)cc1 [Compound 5376]
- pIC50: 4.92

SMILES: O=C(NCCCCN1CCc2ccccc2C1)c1ccc(/C=c2\[nH]c(=O)/c(=C/c3ccccc3)[nH]c2=O)cc1 [Compound 5379]
- inhibition at 20 µM (20 μM): 65%
- pIC50: 4.82

SMILES: CN(C)CCCOc1ccc(/C=c2\[nH]c(=O)/c(=C/c3ccc(C(=O)NCCN4CCc5ccccc5C4)cc3)[nH]c2=O)cc1 [Compound 5386, N-(2-(1,2,3,4-Tetrahydro-2-isoquinolyl)ethyl)-4-((3Z,6Z)-6-(4-(3-dimethylaminopropoxy)benzylidene)-2,5-dioxo-3-piperazinylidene)methylbenzamide]
- pIC50: 4.74

SMILES: CN(C)CCOCCOc1ccc(/C=c2\[nH]c(=O)/c(=C/c3ccccc3)[nH]c2=O)s1 [Compound 5388, (3Z,6Z)-6-Benzylidene-3-(5-(2-(2-dimethylaminoethoxy)ethoxy)-2-thienylmethylene)-2,5-piperazinedione]
- inhibition at 20 µM (20 μM): 58%
- pIC50: 5.05

SMILES: CN(C)CCOCCOc1ccc(/C=c2\[nH]c(=O)/c(=C/c3ccccc3)[nH]c2=O)s1 [Compound 5388.HCl]
- INHIBITION OF PAI-1 (degree of inhibition) (20 μM): 60%
- pIC50: 4.92
